Measured values from ChEMBL document CHEMBL1136537, “The discovery of a new class of large-conductance Ca2+-activated K+ channel opener targeted for overactive bladder: synthesis and structure-activity relationships of 2-amino-4-azaindoles” (Bioorg Med Chem Lett, 2003).

How the values were obtained:
[1] = molecular target: T1, Calcium-activated potassium channel subunit alpha-1 (Homo sapiens, UniProt Q12791); assay: [86Rb+] efflux induced by BKca alpha subunits expressed in HEK293 cells at 10 uM; type: cell-based
[2] = molecular target: T1, Calcium-activated potassium channel subunit alpha-1; assay: BKca channel opening activity in HEK293 cells stably transfected with BKca alpha subunits at 10 uM concentration using a [86Rb+] efflux assay; type: cell-based
[3] = molecular target: T1, Calcium-activated potassium channel subunit alpha-1; assay: BKca opening activity as outward current at 10 uM in HEK293 cells; type: cell-based
[4] = organism: Sus scrofa; assay: In vitro concentration to suppress electrically stimulated contraction in isolated Landrance pig bladder detrusor strips; type: functional
[5] = organism: Sus scrofa; assay: In vitro maximal efficacy in stable twitch response in isolated Landrace pig bladder detrusor strips relative to P-1075

T1 sequence (Q12791 whole entry): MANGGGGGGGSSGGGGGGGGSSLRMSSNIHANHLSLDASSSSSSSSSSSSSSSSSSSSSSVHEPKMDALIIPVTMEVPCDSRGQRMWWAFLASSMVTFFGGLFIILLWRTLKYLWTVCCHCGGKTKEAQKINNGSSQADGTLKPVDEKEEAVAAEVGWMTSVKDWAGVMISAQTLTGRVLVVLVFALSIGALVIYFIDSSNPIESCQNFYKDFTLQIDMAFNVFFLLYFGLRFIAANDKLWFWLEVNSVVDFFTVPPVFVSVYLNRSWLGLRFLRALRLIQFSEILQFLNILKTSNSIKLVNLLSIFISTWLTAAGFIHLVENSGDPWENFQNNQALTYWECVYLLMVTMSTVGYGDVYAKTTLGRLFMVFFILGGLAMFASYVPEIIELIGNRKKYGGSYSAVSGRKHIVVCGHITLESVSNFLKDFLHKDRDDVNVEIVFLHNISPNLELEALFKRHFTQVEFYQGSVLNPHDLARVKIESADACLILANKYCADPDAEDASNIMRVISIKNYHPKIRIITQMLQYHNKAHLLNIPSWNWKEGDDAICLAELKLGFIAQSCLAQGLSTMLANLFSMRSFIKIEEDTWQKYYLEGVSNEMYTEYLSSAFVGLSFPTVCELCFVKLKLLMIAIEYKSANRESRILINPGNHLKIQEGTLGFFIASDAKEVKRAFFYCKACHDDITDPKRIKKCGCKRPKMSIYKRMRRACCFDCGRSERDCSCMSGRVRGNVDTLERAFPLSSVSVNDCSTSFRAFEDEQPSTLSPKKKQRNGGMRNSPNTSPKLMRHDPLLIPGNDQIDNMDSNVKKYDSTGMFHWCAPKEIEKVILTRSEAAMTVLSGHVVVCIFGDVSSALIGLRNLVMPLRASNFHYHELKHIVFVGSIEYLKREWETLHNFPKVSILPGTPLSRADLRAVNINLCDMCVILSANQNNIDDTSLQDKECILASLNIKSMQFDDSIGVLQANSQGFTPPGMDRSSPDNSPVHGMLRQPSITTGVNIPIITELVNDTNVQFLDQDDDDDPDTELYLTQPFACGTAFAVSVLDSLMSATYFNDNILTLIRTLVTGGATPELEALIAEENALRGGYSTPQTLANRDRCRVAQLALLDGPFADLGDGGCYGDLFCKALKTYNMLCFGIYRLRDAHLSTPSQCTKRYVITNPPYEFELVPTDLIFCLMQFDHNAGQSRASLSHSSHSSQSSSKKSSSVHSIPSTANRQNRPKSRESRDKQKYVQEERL

| SMILES | EC50 [1] | Response [2] [%] | Activity [3] [%] | EC50 [4] [µM] | Efficacy [5] [%] | Response [3] [%] |
| --- | --- | --- | --- | --- | --- | --- |
| N#Cc1c(Cl)[nH]c2cccnc12 | Not Active | 0 | – | – | – | – |
| N#Cc1c(NCc2ccccc2)[nH]c2cccnc12 | Not Active | 0 | – | – | – | – |
| CN1CCN(c2[nH]c3cccnc3c2C#N)CC1 | Not Active | 0 | – | – | – | – |
| CCCN(CCO)c1[nH]c2cccnc2c1C#N | Not Active | 0 | – | – | – | – |
| CN(C)c1[nH]c2cccnc2c1C#N | 5.13 µM | 60 | 75.5 | 23.5 | 58 | – |
| N#Cc1c(N2CC3CCC(CC3)C2)[nH]c2cccnc12 | 4.43 µM | 74 | – | – | – | – |
| Cc1c(-c2ccccc2F)[nH]c(N)c1C#N | – | – | – | 63.1 | 93 | 21.7 |
| C[C@@H]1CC[C@@H](C)N1c1[nH]c2cccnc2c1C#N | Not Active | 0 | – | – | – | – |
| CN(C)CCN(C)c1[nH]c2cccnc2c1C#N | 6.75 µM | 63 | – | – | – | – |
| N#Cc1c(O)[nH]c2cccnc12 | 13.4 µM | 65 | – | – | – | – |
| N#Cc1c(Nc2ccccc2)[nH]c2cccnc12 | Not Active | 0 | – | – | – | – |
| CCN(CC)c1[nH]c2cccnc2c1C#N | 6.94 µM | 57 | – | – | – | – |
| N#Cc1c(-n2ccnc2)[nH]c2cccnc12 | 5.86 µM | 62 | – | – | – | – |

Second part, the compound after the results:

| EC50 [1] | Response [2] [%] | Activity [3] [%] | EC50 [4] [µM] | Efficacy [5] [%] | Response [3] [%] | SMILES |
| --- | --- | --- | --- | --- | --- | --- |
| 5.07 µM | 65 | 108 | 9.26 | 31 | – | N#Cc1c(N2CCC[C@H](O)C2)[nH]c2cccnc12 |
| 15.1 µM | 28 | – | – | – | – | N#Cc1c(N2CCC(O)CC2)[nH]c2cccnc12 |
| Not Active | 3.02 | – | 24.8 | 67 | – | N#Cc1c(N2CCCCC2)[nH]c2cccnc12 |
| Not Active | 0 | – | – | – | – | N#Cc1c(N2CC[C@@H](O)C2)[nH]c2cccnc12 |
| Not Active | 0 | – | – | – | – | N#Cc1c(N2CCCCCCC2)[nH]c2cccnc12 |
| Not Active | 0 | – | – | – | – | CN1CCCN(c2[nH]c3cccnc3c2C#N)CC1 |
| Not Active | 0 | – | – | – | – | N#Cc1c(N2CC=CC2)[nH]c2cccnc12 |
| 3.86 µM | 62 | – | – | – | – | N#Cc1c(N2CCOCC2)[nH]c2cccnc12 |
| Not Active | 0 | – | – | – | – | N#Cc1c(N2CCC[C@@H]2CO)[nH]c2cccnc12 |
| 3.34 µM | 61 | 105 | 25.9 | 63 | – | N#Cc1c(N2CCCCCC2)[nH]c2cccnc12 |
| Not Active | 0 | – | – | – | – | N#Cc1c(N2CCC[C@H]2CO)[nH]c2cccnc12 |
| 17 µM | 55 | – | – | – | – | COC(=O)C1CCN(c2[nH]c3cccnc3c2C#N)CC1 |
| Not Active | 0 | – | – | – | – | N#Cc1c(N2CCC3CCCCC3C2)[nH]c2cccnc12 (stereo unspecified) |
| 8.12 µM | 58 | – | – | – | – | N#Cc1c(N2CCCC2)[nH]c2cccnc12 |
